Laboratory results taken from US9751869B2, “LXR modulators” (BRISTOL-MYERS SQUIBB COMPANY, priority 2013, dated 2017).

Target: T1, LXRβ (Homo sapiens, UniProt P55055)
T1 construct: Co-transfection expression plasmids, comprising full-length LXRα (pCMX-h LXRα or LXRβ (pCMX-hLXRβ)); expressed in transfected cells; host or cells: CV-1 African green monkey kidney cells, transient transfection with pCMX-hLXRβ
T1 sequence (P55055 1-460): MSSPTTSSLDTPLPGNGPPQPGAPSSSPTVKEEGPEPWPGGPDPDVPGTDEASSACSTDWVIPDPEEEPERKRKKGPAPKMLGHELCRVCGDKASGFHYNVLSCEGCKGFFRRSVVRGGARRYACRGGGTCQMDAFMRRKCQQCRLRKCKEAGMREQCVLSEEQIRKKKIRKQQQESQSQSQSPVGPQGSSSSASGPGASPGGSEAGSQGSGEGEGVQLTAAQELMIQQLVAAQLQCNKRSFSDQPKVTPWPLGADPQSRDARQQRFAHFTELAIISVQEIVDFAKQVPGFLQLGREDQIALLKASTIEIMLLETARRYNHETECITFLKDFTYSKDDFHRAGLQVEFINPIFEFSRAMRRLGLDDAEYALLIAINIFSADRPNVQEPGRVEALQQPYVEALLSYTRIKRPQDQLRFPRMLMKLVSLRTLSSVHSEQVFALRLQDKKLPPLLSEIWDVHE
T1 sequence (P19793 1-462 partner): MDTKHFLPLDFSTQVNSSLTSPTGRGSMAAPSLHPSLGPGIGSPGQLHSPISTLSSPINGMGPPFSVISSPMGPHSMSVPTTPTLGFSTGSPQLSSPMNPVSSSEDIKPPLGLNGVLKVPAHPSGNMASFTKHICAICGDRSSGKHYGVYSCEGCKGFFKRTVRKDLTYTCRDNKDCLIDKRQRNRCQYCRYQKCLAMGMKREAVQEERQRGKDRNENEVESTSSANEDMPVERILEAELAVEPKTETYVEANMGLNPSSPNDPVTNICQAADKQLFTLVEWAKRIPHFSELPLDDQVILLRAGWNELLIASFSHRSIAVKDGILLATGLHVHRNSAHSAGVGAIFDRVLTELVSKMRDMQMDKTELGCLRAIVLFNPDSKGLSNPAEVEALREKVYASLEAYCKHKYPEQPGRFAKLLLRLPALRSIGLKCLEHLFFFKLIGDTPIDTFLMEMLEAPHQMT
Assay: LXR/LXRE co-transfection assay (luciferase reporter) in CV-1 cells, LXRβ
Format: cell-based
Details: for EC50: CV-1 cells transfected with pCMX-hLXRβ and LXREx1-Tk-Luciferase, 20 hours incubation, read-out: LXRbeta agonism EC50; for Emax: read-out: LXRbeta % EFFICACY
From the text: To measure the ability of compounds to activate or inhibit the transcriptional activity of LXR in a cell based assay, the co-transfection assay was used. It has been shown that LXR functions as a heterodimer with RXR. For the co-transfection assay, expression plasmids for LXRα and LXRβ are introduced separately via transient transfection into mammalian cells along with a luciferase reporter plasmid that contains one copy of a DNA sequence that is bound by LXR-RXR heterodimers (LXRE; Willy, P. et. al. 1995). LXRs heterodimerize with the endogenous RXR. Treatment of transfected cells with an LXR agonist increases the transcriptional activity of LXR, which is measured by an increase in luciferase activity.
Co-transfection expression plasmids, comprising full-length LXRα (pCMX-h LXRα or LXRβ (pCMX-hLXRβ), reporter plasmid (LXREx1-Tk-Luciferase), and control (pCMX-Galactosidase expression vector) (Willey et al. Genes & Development 9 1033-1045 (1995)).
CV-1 cells were prepared 24 hours prior to the experiment by plating them into T-175 flasks or 500 cm^2 dishes in order to achieve 70-80% confluency on the day of the transfection. The number of cells to be transfected was determined by the number of plates to be screened. Each well of a 384 well plate requires 1.5×10^4 cells. DNA Transfection Reagent was prepared by mixing the required plasmid DNAs with a cationic lipid transfection reagent Transit 2020 (Mirus Bio) for CV1 by following the instructions provided with the reagents. Optimal DNA amounts were determined empirically per cell line and size of vessel to be transfected. For each T175 cm^2 flask a total of 44.4 ug for CV1 of DNA, 133 ul Transit2020 and 4.5 ml DMEM for CV1 was mixed and added. Cells were then incubated at least 5 hours at 37° C. to prepare screening cells.
Assay plates were prepared by dispensing 5 μL of compound per well of a 384 well plate to achieve final compound concentration of 10 μM and no more than 0.5% DMSO. Media was removed from the screening cells, the cells trypsinized, harvested cells by centrifugation, counted, and plated at a density of approximately 1.5×10^4 cells in the 384 well assay plate prepared above in a volume of about 95 uL. Assay plates containing both compounds and screening cells (100 μL in total volume) were incubated for 20 hours at 37° C.
After incubation with compounds, media was removed from the cells and luciferase assay reagent (30 μL/well) added. After ˜2 minutes at ambient temperature, the assay plates were read on a luminometer (PE Biosystems Northstar reader with on-board injectors, or Envision (Perkin Elmer) or equivalent).
The LXR/LXRE co-transfection assay can be used to establish the EC50/IC50 values for potency and percent activity or inhibition for efficacy. Efficacy defines the activity of a compound relative to a high control ((N-(3-((4-fluorophenyl)-(naphthalene-2-sulfonyl)amino)propyl)-2,2-dimethylpropionamide)) or a low control (DMSO/vehicle). The dose response curves are generated from a 10 point curve with concentrations differing by ½ LOG units. Each point represents the average of 4 wells of data from a 384 well plate.
The data from this assay is fitted to the following equation, from which the EC50 value may be solved: Y=Bottom+(Top−Bottom)/(1+10^((log EC50-X)*HillSlope)).
The EC50/IC50 is therefore defined as the concentration at which an agonist or antagonist elicits a response that is halfway between the Top (maximum) and Bottom (baseline) values. The EC50/IC50 values represented are the averages of at least 2 and normally 3 independent experiments. The determination of the relative efficacy or % control for an agonist is by comparison to the maximum response achieved by ((N-(3-((4-fluorophenyl)-(naphthalene-2-sulfonyl)-amino)propyl)-2,2-dimethylpropionamide) that is measured individually in each dose response experiment.
Table 1 lists LXRβ EC50 values and % efficacy measurements in the cotransfection assay for examples of this invention.

[1] = CV-1 cells, relative to maximum response of high control N-(3-((4-fluorophenyl)-(naphthalene-2-sulfonyl)amino)propyl)-2,2-dimethylpropionamide

| Compound | EC50 [nM] | Emax [1] [%] | LXRbeta % EFFICACY [1] [%] |
| --- | --- | --- | --- |
| Cc1nc(-c2ccc(OC(F)F)nc2)c(-c2cc(-c3cccc(S(C)(=O)=O)c3)ccc2-n2cc(Cl)c(C(F)(F)F)n2)o1 [Example 425] | 24 | 99 |  |
| Cc1nc(-c2cc(-c3cccc(S(C)(=O)=O)c3)ccc2-n2nc(C(F)(F)F)cc2Cl)c(-c2ccc(OC(F)(F)F)cc2)o1 [Example 406, 4-(4-(5-chloro-3-(trifluoromethyl)-1H-pyrazol-1-yl)-3′-(methylsulfonyl)biphenyl-3-yl)-2-methyl-5-(4-(trifluoromethoxy)phenyl)oxazole] | 143 | 63 |  |
| Cc1nc(-c2ccc(Cl)cc2)c(-c2cc(-c3cccc(S(C)(=O)=O)c3)ccc2-n2ccc(C(F)(F)F)n2)o1 [Example 344, 4-(4-chlorophenyl)-2-methyl-5-(3′-(methylsulfonyl)-4-(3-(trifluoromethyl)-1H-pyrazol-1-yl)biphenyl-3-yl)oxazole] | 116 | 72 |  |
| Cc1nc(-c2ccc3c(c2)OC(F)(F)O3)c(-c2cc(-c3cccc(S(C)(=O)=O)c3)ccc2-c2cc(C(C)O)nn2C)o1 (stereo not shown) [Example 101, 1-(5-(3-(4-(2,2-difluorobenzo[d][1,3]dioxol-5-yl)-2-methyloxazol-5-yl)-3′-(methylsulfonyl)-[1,1′-biphenyl]-4-yl)-1-methyl-1H-pyrazol-3-yl)ethanol] | 79 |  | 50 |
| Cc1nc(-c2ccc3c(c2)OC(F)(F)O3)c(-c2cc(-c3cc(F)c(CO)c(S(C)(=O)=O)c3)ccc2-c2cc(C(N)=O)nn2C)o1 [Example 56, 5-(3-(4-(2,2-difluorobenzo[d][1,3]dioxol-5-yl)-2-methyloxazol-5-yl)-3′-fluoro-4′-(hydroxymethyl)-5′-(methylsulfonyl)biphenyl-4-yl)-1-methyl-1H-pyrazole-3-carboxamide] | 1100 | 35 |  |
| Cc1nc(-c2ccc(OC(F)(F)F)cc2)c(-c2cc(-c3cccc(S(C)(=O)=O)c3)ccc2-n2cc(Cl)c(C(F)(F)F)n2)o1 [Example 380, 5-(4-(4-chloro-3-(trifluoromethyl)-1H-pyrazol-1-yl)-3′-(methylsulfonyl)-[1,1′-biphenyl]-3-yl)-2-methyl-4-(4-(trifluoromethoxy)phenyl) oxazole] | 465 | 29 |  |
| CC(C)c1nc(-c2ccc(OC(F)(F)F)cc2)c(-c2cc(-c3cc(F)c(CO)c(S(C)(=O)=O)c3)ccc2-n2ccc(C(F)(F)F)n2)o1 [Example 341, (3-fluoro-3′-(2-isopropyl-4-(4-(trifluoromethoxy)phenyl)oxazol-5-yl)-5-(methylsulfonyl)-4′-(3-(trifluoromethyl)-1H-pyrazol-1-yl)biphenyl-4-yl)methanol] | 58 | 76 |  |
| Cc1cc(C(F)(F)F)nn1-c1ccc(-c2cccc(S(C)(=O)=O)c2)cc1-n1nncc1-c1ccc(OC(F)(F)F)cc1 [Example 300, 1-{3′-(methylsulfonyl)-4-[5-methyl-3-(trifluoromethyl)-1H-pyrazol-1-yl]biphenyl-3-yl}-5-{4-[(trifluoromethyl)oxy]phenyl}-1H-1,2,3-triazole] | 153 | 99 |  |
| Cc1nc(-c2ccc3c(c2)OC(F)(F)O3)c(-c2cc(-c3cc(F)c(CO)c(S(C)(=O)=O)c3)ccc2-c2cc(C#N)nn2C)o1 [Example 122, 5-(3-(4-(2,2-difluorobenzo[d][1,3]dioxol-5-yl)-2-methyloxazol-5-yl)-3′-fluoro-4′-(hydroxymethyl)-5′-(methylsulfonyl)-[1,1′-biphenyl]-4-yl)-1-methyl-1H-pyrazole-3-carbonitrile] | 63 | 22 |  |
| Cc1nc(-c2ccc3c(c2)OC(F)(F)O3)c(-c2cc(-c3cc(F)c(CO)c(S(C)(=O)=O)c3)ccc2-c2cc(C3(C#N)CC3)nn2C)o1 [Example 60, 1-(5-(3-(4-(2,2-difluorobenzo[d][1,3]dioxol-5-yl)-2-methyloxazol-5-yl)-3′-fluoro-4′-(hydroxymethyl)-5′-(methylsulfonyl)-[1,1′-biphenyl]-4-yl)-1-methyl-1H-pyrazol-3-yl)cyclopropanecarbonitrile] | 7 | 85 |  |
| Cn1nc(C(=O)NC(C)(C)C#N)cc1-c1ccc(-c2cccc(S(C)(=O)=O)c2)cc1-n1nncc1-c1ccc(OC(F)(F)F)cc1 [Example 37, N-(1-cyano-1-methylethyl)-1-methyl-5-[3′-(methylsulfonyl)-3-(5-{4-[(trifluoromethyl)oxy]phenyl}-1H-1,2,3-triazol-1-yl)biphenyl-4-yl]-1H-pyrazole-3-carboxamide] | 1560 | 47 |  |
| Cc1nc(-c2ccc(OC(F)(F)F)cc2)c(-c2cc(-c3cccc(C4(C(N)=O)CC4)c3)ccc2-n2nc(C(F)(F)F)cc2Cl)o1 [Example 381, 1-(4′-(5-chloro-3-(trifluoromethyl)-1H-pyrazol-1-yl)-3′-(2-methyl-4-(4-(trifluoromethoxy)phenyl)oxazol-5-yl)-[1,1′-biphenyl]-3-yl) cyclopropanecarboxamide] | 1080 | 61 |  |
| Cc1nc(-c2cc(-c3cccc(S(C)(=O)=O)c3)ccc2-n2ccc(C(F)(F)F)n2)c(-c2cc(F)c(OC(F)F)c(F)c2)o1 [Example 409, 5-(4-(difluoromethoxy)-3,5-difluorophenyl)-2-methyl-4-(3′-(methylsulfonyl)-4-(3-(trifluoromethyl)-1H-pyrazol-1-yl)biphenyl-3-yl)oxazole] | 45 | 69 |  |
| CN(C)S(=O)(=O)c1cccc(-c2ccc(-c3cc(C(C)(F)F)nn3C)c(-n3nncc3-c3ccc(OC(F)(F)F)cc3)c2)c1 [Example 19, 4′-[3-(1,1-difluoroethyl)-1-methyl-1H-pyrazol-5-yl]-N,N-dimethyl-3′-(5-{4-[(trifluoromethyl)oxy]phenyl}-1H-1,2,3-triazol-1-yl)biphenyl-3-sulfonamide] | 91 | 79 |  |
